Where a name gives a salt, the structure may show the parent alone. Read-outs that look alike come from different tables or passages of the source.
Assays:
[1] = biological target: BAF3-T315I cells (Ba/F3 cell line stably expressing BCR/ABL T315I) (Homo sapiens, UniProt P00519, T315I, cells depend on it); experiment: tumor cell proliferation, MTT or CCK8 assay, 72 h incubation; assay type: cell-based, mice
Procedure: (§1) The heterocyclic alkynyl benzene compounds at different concentrations (1×10^−10˜1×10^−5M) were incubated for 72 hours individually applied to 6 cell lines K562 (human CML cell line), MOLT-4 (human ALL cell line), U937 (human CML cell line), MEG-01 (human CML cell line), L78 (human lung cancer cell line), Ba/F3-T315I (mice Pro-B cells transformed with Bcr-AblT315I and STI57′-resistant cell line). After incubation for 72 hrs, cell proliferation was then determined by MTT assay or CCK8 assay, and 4 hr incubation is further conducted, the absorbance at 570 nm (CCK8, 450 nm, 650 nm) was measured using enzyme Microplate Reader.

[2] = tested on: MOLT-4 (Human acute lymphoblastic leukemia cell line); experiment: as above; assay type: cell-based; conditions: MOLT-4, 72 h, read-out: IC50 on tumor cell proliferation, MOLT-4
Procedure: as §1, with “Reader. […] Based on the inhibition potency of the heterocyclic alkynyl benzene compounds on the cell proliferation, IC50 values were calculated and summarized in the Table 1 and Table 2 (The compounds used were synthesized by Examples 1-40, and the compounds are marked with Drug No. series in Table 1).” for “Reader.”

[3] = tested on: K562 (human chronic myelogenous leukemia cell line); experiment: as above; assay type: cell-based; conditions: K562, 72 h, read-out: IC50 on tumor cell proliferation, K562
Procedure: as §1, with “Reader. […] Based on the inhibition potency of the heterocyclic alkynyl benzene compounds on the cell proliferation, IC50 values were calculated and summarized in the Table 1 and Table 2 (The compounds used were synthesized by Examples 1-40, and the compounds are marked with Drug No. series in Table 1).” for “Reader.”

[4] = tested on: K562R cells (imatinib-resistant cell line); experiment: as above; assay type: cell-based; conditions: Homo sapiens, K-562R, read-out: IC50 on tumor cell proliferation, K562R cells
[5] = Pharmacokinetics and bioavailability in rats; assay type: in vivo; conditions: SD rats; for bioavailability / BA(% Oral bioavailability): calculated according to AUC data, PO vs IV; for bioavailability: read-out: BA(% Oral bioavailability)
Procedure: Pharmacokinetics and bioavailability in rats. […] The blood samples were collected at the proper time points after administration, add heparin-anticoagulant, and the supernatants of the blood samples were collected (3000 rpm, 10 min) and stored at -20° C. for HPLC-MS analysis. After protein-precipitation procedure with acetonitrile, supernatants were collected after 3000 rpm, 10 min for analysis with HPLC-MS. The data were analyzed with software DAS2.0 to separately acquire the parameters of compartment models and non-compartment models. The bioavailability was calculated according to AUC data.

[6] = Ba/F3 expressing BCR/ABL T315I, 72 h, Table 1; read-out: IC50 on tumor cell proliferation, BAF3-T315I cells
[7] = both sexes, Sprague-Dawley, rat, plasma, iv, 10 mg/kg, IV 10 mg/kg
[8] = both sexes, Sprague-Dawley, rat, plasma, po, 20 mg/kg, PO 20 mg/kg
[9] = both sexes, Sprague-Dawley, rat, plasma, po
[10] = both sexes, Sprague-Dawley, rat, plasma, iv, 2.5 mg/kg, IV 2.5 mg/kg
[11] = both sexes, Sprague-Dawley, rat, plasma, po, 25 mg/kg, PO 25 mg/kg
[12] = both sexes, Sprague-Dawley, rat, plasma, po, 25 mg/kg, PO 25 mg/kg, read-out: Cmax
[13] = both sexes, Sprague-Dawley, rat, plasma, po, 25 mg/kg, PO 25 mg/kg, read-out: Tmax
[14] = both sexes, Sprague-Dawley, rat, plasma, iv, 5 mg/kg, IV 5 mg/kg
[15] = both sexes, Sprague-Dawley, rat, plasma, iv, 5 mg/kg, IV 5 mg/kg, read-out: Cmax
[16] = both sexes, Sprague-Dawley, rat, plasma, iv, 5 mg/kg, IV 5 mg/kg, read-out: Tmax
[17] = IV 5 mg/kg, dihydrochloride, 5 mg/kg
[18] = PO 25 mg/kg, dihydrochloride, 25 mg/kg
[19] = both sexes, Sprague-Dawley, rat, plasma, iv, 25 mg/kg, IV 25 mg/kg
[20] = both sexes, Sprague-Dawley, rat, plasma, po, 5 mg/kg, PO 5 mg/kg

In the case of Cc1cn(-c2cc(NC(=O)c3ccc(C)c(C#Cc4cnc(NC5CCCCC5)nc4)c3)cc(C(F)(F)F)c2)cn1 [D828, 3-(2-(2-(cyclohexylamino)pyrimidin-5-yl)ethynyl)-4-methyl-N-(3-(4-methyl-1H-imidazol-1-yl)-5-(trifluoromethyl)phenyl)benzamide], the GI50 ([1]; read-out: IC50 on tumor cell proliferation, BAF3-T315I cells; Ba/F3 expressing BCR/ABL T315I, 72 h, Table 1) is reported as 2480 nM, the IC50 [2] is reported as > 100 nM and the IC50 [3] is reported as 30.9 nM. The IC50 [4] was 3070 nM.
With Cc1ccc(C(=O)Nc2cccc(C(F)(F)F)c2)cc1C#Cc1cnc2[nH]ncc2c1 [D821, 3-(2-(1H-pyrazolo[3,4-b]pyridin-5-yl)ethynyl)-4-methyl-N-(3-(trifluoromethyl)phenyl)benzamide] the GI50 [1, 6] was 19.5 nM, the IC50 ([2]; MTT or CCK8, nM) was > 100 nM and the IC50 ([3]; MTT or CCK8, nM) was 0.724 nM. For the same compound, the IC50 ([4]; imatinib-resistant K562R) was 58 nM.
Cc1cn(-c2cc(NC(=O)c3ccc(C)c(C#Cc4cnc(NC(C)C)nc4)c3)cc(C(F)(F)F)c2)cn1 [D752 mesylate salt, 3-(2-(2-(isopropylamino)pyrimidin-5-yl)ethynyl)-4-methyl-N-(3-(4-methyl-1H-imidazol-1-yl)-5-(trifluoromethyl)phenyl)benzamide] showed an AUC(0-inf) [5, 7] of 305000 ng·h/mL, a half-life [5, 7] of 2630 min and a Cmax ([5]; both sexes, Sprague-Dawley, rat, plasma, iv, 10 mg/kg, IV 10 mg/kg, read-out: Cmax) of 19600 ng/mL. It also gave a Tmax ([5]; both sexes, Sprague-Dawley, rat, plasma, iv, 10 mg/kg, IV 10 mg/kg, read-out: Tmax) of 0.033 h, an AUC(0-inf) [5, 8] of 70400 ng·h/mL and a half-life [5, 8] of 453 min. It also gave a Cmax ([5]; both sexes, Sprague-Dawley, rat, plasma, po, 20 mg/kg, PO 20 mg/kg, read-out: Cmax) of 1900 ng/mL, a Tmax ([5]; both sexes, Sprague-Dawley, rat, plasma, po, 20 mg/kg, PO 20 mg/kg, read-out: Tmax) of 20 h and a bioavailability [5, 9] of 11.5%.
CCNc1ncc(C#Cc2cc(C(=O)Nc3cc(-n4cnc(C)c4)cc(C(F)(F)F)c3)ccc2C)cn1 [D755 hydrochloride salt, 3-(2-(2-(ethylamino)pyrimidin-5-yl)ethynyl)-4-methyl-N-(3-(4-methyl-1H-imidazol-1-yl)-5-(trifluoromethyl)phenyl)benzamide] showed an AUC(0-inf) [5, 10] of 3740 ng·h/mL, a half-life [5, 10] of 1570 min and a Cmax ([5]; both sexes, Sprague-Dawley, rat, plasma, iv, 2.5 mg/kg, IV 2.5 mg/kg, read-out: Cmax) of 510 ng/mL. It also gave a Tmax ([5]; both sexes, Sprague-Dawley, rat, plasma, iv, 2.5 mg/kg, IV 2.5 mg/kg, read-out: Tmax) of 0.033 h, an AUC(0-inf) [5, 11] of 23700 ng·h/mL and a half-life [5, 11] of 498 min. The Cmax [5, 12] was 1260 ng/mL, the Tmax [5, 13] was 6.25 h and the bioavailability [5, 9] was 63.3%.
In the case of Cc1ncn(-c2cc(NC(=O)c3ccc(C)c(C#Cc4cnc5[nH]ncc5c4)c3)cc(C(F)(F)F)c2)n1 [D835, 3-(2-(1H-pyrazolo[3,4-b]pyridin-5-yl)ethynyl)-4-methyl-N-(3-(3-methyl-1H-1,2,4-triazol-1-yl)-5-(trifluoromethyl)phenyl)benzamide], the GI50 [1, 6] is reported as 8.58 nM, the IC50 ([2]; MTT or CCK8, nM) is reported as > 100 nM and the IC50 ([3]; MTT or CCK8, nM) is reported as 0.402 nM. For the same compound, the IC50 ([4]; imatinib-resistant K562R) was 26 nM.
In the case of Cc1cn(-c2cc(NC(=O)c3ccc(C)c(C#Cc4cnc5[nH]ncc5c4)c3)cc(C(F)(F)F)c2)cn1 [D767 hydrochloride salt, 3-(2-(1H-pyrazolo[3,4-b]pyridin-5-yl)ethynyl)-4-methyl-N-(3-(4-methyl-1H-imidazol-1-yl)-5-(trifluoromethyl)phenyl)benzamide], the “AUC(0-∞)” value ([5]; PO 25 mg/kg, 25 mg/kg) is reported as 62.208 µg·h/mL, the Tmax ([5]; PO 25 mg/kg, 25 mg/kg) is reported as 7.75 h and the “BA(% Oral bioavailability)” value [5] is reported as 19%. The AUC(0-inf) [5, 14] was 65500 ng·h/mL, the half-life [5, 14] was 336 min and the Cmax [5, 15] was 15300 ng/mL. For the same compound, the Tmax [5, 16] was 0.033 h, the half-life [5, 11] was 431 min and the Cmax [5, 12] was 3620 ng/mL.
For Cc1ccc(C(=O)Nc2ccc(CN3CCN(C)CC3)c(C(F)(F)F)c2)cc1C#Cc1cnc2[nH]ncc2c1 [D824 hydrochloride salt, 3-(2-(1H-pyrazolo[3,4-b]pyridin-5-yl)ethynyl)-4-methyl-N-(4-((4-methylpiperazin-1-yl)methyl)-3-(trifluoromethyl)phenyl)benzamide dihydrochloride], the “AUC(0-∞)” value [5, 17] was 2.922411 µg·h/mL, the Cmax [5, 17] was 1375.625 ng/mL and the T1/2 [5, 17] was 5.557 h. For the same compound, the Tmax [5, 17] was 0.067 h, the “AUC(0-∞)” value [5, 18] was 7.108253 µg·h/mL and the Cmax [5, 18] was 390.5 ng/mL. For the same compound, the T1/2 [5, 18] was 10.55 h, the “BA(% Oral bioavailability)” value ([5]; dihydrochloride) was 48.7% and the Tmax [5, 13] was 6 h.
With Cc1ncn(-c2cc(NC(=O)c3ccc(C)c(C#Cc4cnc5[nH]ncc5c4)c3)cc(C(F)(F)F)c2)n1 [D835 hydrochloride salt, 3-(2-(1H-pyrazolo[3,4-b]pyridin-5-yl)ethynyl)-4-methyl-N-(3-(3-methyl-1H-1,2,4-triazol-1-yl)-5-(trifluoromethyl)phenyl)benzamide] the AUC(0-inf) [5, 14] was 8540 ng·h/mL, the half-life [5, 14] was 1010 min and the Cmax [5, 15] was 976 ng/mL. It also gave a Tmax [5, 16] of 0.033 h, an AUC(0-inf) [5, 11] of 3470 ng·h/mL and a half-life [5, 11] of 529 min. It also gave a Cmax [5, 12] of 233 ng/mL, a Tmax [5, 13] of 4 h and a bioavailability [5, 9] of 8.1%.
For CNc1ncc(C#Cc2cc(C(=O)Nc3cc(-n4cnc(C)c4)cc(C(F)(F)F)c3)ccc2C)cn1 [D800 hydrochloride salt, 4-methyl-N-(3-(4-methyl-1H-imidazol-1-yl)-5-(trifluoromethyl)phenyl)-3-(2-(2-(methylamino)pyrimidin-5-yl)ethynyl)benzamide], the “BA(% Oral bioavailability)” value [5] was 27.1%, the AUC(0-inf) [5, 19] was 48600 ng·h/mL and the half-life [5, 19] was 468 min. The Cmax ([5]; both sexes, Sprague-Dawley, rat, plasma, iv, 25 mg/kg, IV 25 mg/kg, read-out: Cmax) was 3090 ng/mL, the Tmax ([5]; both sexes, Sprague-Dawley, rat, plasma, iv, 25 mg/kg, IV 25 mg/kg, read-out: Tmax) was 2 h and the AUC(0-inf) [5, 20] was 35800 ng·h/mL. The half-life [5, 20] was 450 min, the Cmax ([5]; both sexes, Sprague-Dawley, rat, plasma, po, 5 mg/kg, PO 5 mg/kg, read-out: Cmax) was 11000 ng/mL and the Tmax ([5]; both sexes, Sprague-Dawley, rat, plasma, po, 5 mg/kg, PO 5 mg/kg, read-out: Tmax) was 0.033 h.
With Cc1ccc(C(=O)Nc2cc(-n3ccnc3)cc(C(F)(F)F)c2)cc1C#Cc1cnc2[nH]ncc2c1 [D831 mesylate salt, N-(3-(1H-imidazol-1-yl)-5-(trifluoromethyl)phenyl)-3-(2-(1H-pyrazolo[3,4-b]pyridin-5-yl)ethynyl)-4-methylbenzamide] the AUC(0-inf) [5, 14] was 107000 ng·h/mL, the half-life [5, 14] was 314 min and the Cmax [5, 15] was 64200 ng/mL. The Tmax [5, 16] was 0.033 h, the AUC(0-inf) [5, 11] was 73900 ng·h/mL and the half-life [5, 11] was 280 min. For the same compound, the Cmax [5, 12] was 9520 ng/mL, the Tmax [5, 13] was 2.25 h and the bioavailability [5, 9] was 13.8%.
Cc1ccc(C(=O)Nc2ccc(CN3CCN(C)CC3)c(C(F)(F)F)c2)cc1C#Cc1cnc(NC2CC2)nc1 [D825 mesylate salt, 3-(2-(2-(cyclopropylamino)pyrimidin-5-yl)ethynyl)-4-methyl-N-(4-((4-methylpiperazin-1-yl)methyl)-3-(trifluoromethyl)phenyl)benzamide trimesylate] showed an AUC(0-inf) [5, 14] of 11800 ng·h/mL, a half-life [5, 14] of 702 min and a Cmax [5, 15] of 2330 ng/mL. It also gave a Tmax [5, 16] of 0.033 h, an AUC(0-inf) [5, 11] of 34600 ng·h/mL and a half-life [5, 11] of 690 min. The Cmax [5, 12] was 1700 ng/mL, the Tmax [5, 13] was 4.75 h and the bioavailability [5, 9] was 58.5%.

— patent US8846671B2, “Heterocyclic alkynyl benzene compounds and medical compositions and uses thereof” (Guangzhou Institute of Biomedicine and Health, Chinese …, priority 2010, dated 2014)
